Test [1] relates to IL-2. The experiment in a line: Production of IL-2 in anti-CD3-stimulated purified T cells (ELISA). The test is classed as cell-based, human. Conditions: T cells from PBMC on anti-CD3 (OKT3) coated plates, IL-2 by ELISA, read-out: EC50s for IL-2. How it is done:
PBMC are depleted of adherent monocytes by placing 1×10^8 PBMC in 10 ml complete medium (RPMI 1640 supplemented with 10% heat-inactivated fetal bovine serum, 2 mM L-glutamine, 100 U/ml penicillin, and 100 μg/ml streptomycin) per 10 cm tissue culture dish, in 37° C., 5% CO2 incubator for 30-60 minutes. The dish is rinsed with medium to remove all non-adherent PBMC. T cells are purified by negative selection using the following antibody (Pharmingen) and Dynabead (Dynal) mixture for every 1×10^8 non-adherent PBMC: 0.3 ml Sheep anti-mouse IgG beads, 15 μl anti-CD16, 15 μl anti-CD33, 15 μl anti-CD56, 0.23 ml anti-CD19 beads, 0.23 ml anti-HLA class II beads, and 56 μl anti-CD14 beads. The cells and bead/antibody mixture is rotated end-over-end for 30-60 minutes at 4° C. Purified T cells are removed from beads using a Dynal magnet. Typical yield is about 50% T cells, 87-95% CD3′ by flow cytometry.
Tissue culture 96-well flat-bottom plates are coated with anti-CD3 antibody OKT3 at 5 μg/ml in PBS, 100 μl per well, incubated at 37° C. for 3-6 hours, then washed four times with complete medium 100 μl/well just before T cells are added. Compounds are diluted to 20 times of final in a round bottom tissue culture 96-well plate. Final concentrations are about 10 μM to about 0.00064 μM. A 10 mM stock of compounds provided herein is diluted 1:50 in complete for the first 20× dilution of 200 μM in 2% DMSO and serially diluted 1:5 into 2% DMSO. Compound is added at 10 μl per 200 μl culture, to give a final DMSO concentration of 0.1%. Cultures are incubated at 37° C., 5% CO2 for 2-3 days, and supernatants analyzed for IL-2 by ELISA (R&D Systems). […]
In addition, potencies of racemic, (R)-, and (S)-pomalidomide in promoting the production of IL-2 were measured using procedures substantially similar to those described in Section 5.5 above.

Test [2] has as its system TNFα. The experiment in a line: Inhibition of TNFα in LPS-stimulated hPBMC (ELISA). The test is classed as cell-based. The note with it: LPS-stimulated human PBMC, TNFα by ELISA; read-out: IC50s for TNFα. How it is done: Human peripheral blood mononuclear cells (hPBMC) from normal donors are obtained by Ficoll Hypaque (Pharmacia, Piscataway, N.J., USA) density centrifugation. Cells are cultured in RPMI 1640 (Life Technologies, Grand Island, N.Y., USA) supplemented with 10% AB+human serum (Gemini Bio-products, Woodland, Calif., USA), 2 mM L-glutamine, 100 U/ml penicillin, and 100 μg/ml streptomycin (Life Technologies).
PBMC (2×10^5 cells) are plated in 96-well flat-bottom Costar tissue culture plates (Corning, N.Y., USA) in triplicate. Cells are stimulated with LPS (from Salmonella abortus equi, Sigma cat. no. L-1887, St. Louis, Mo., USA) at 1 ng/ml final in the absence or presence of compounds. Compounds provided herein are dissolved in DMSO (Sigma) and further dilutions are done in culture medium immediately before use. The final DMSO concentration in all assays can be about 0.25%. Compounds are added to cells 1 hour before LPS stimulation. Cells are then incubated for 18-20 hours at 37° C. in 5% CO2, and supernatants are then collected, diluted with culture medium and assayed for TNFα levels by ELISA (Endogen, Boston, Mass., USA). IC50s are calculated using non-linear regression, sigmoidal dose-response, constraining the top to 100% and bottom to 0%, allowing variable slope (GraphPad Prism v3.02).
Potencies of racemic, (R)-, and (S)-pomalidomide in inhibiting TNFα were measured using procedures substantially similar to those described in Section 5.4 above.

Read-outs that look alike come from different tables or passages of the source.

With `Nc1cccc2c1C(=O)N([C@@H]1CCC(=O)NC1=O)C2=O` [(R)-pomalidomide], the EC50 in test [1] came out at 0.0572 µM. Moreover, the IC50 in test [2] stood at 0.0933 µM.

On to `Nc1cccc2c1C(=O)N([C@H]1CCC(=O)NC1=O)C2=O` [(S)-pomalidomide], for which, in test [1], the EC50 came out at 0.0124 µM. Further, the IC50 in test [2] was 0.0039 µM.

In the case of `Nc1cccc2c1C(=O)N(C1CCC(=O)NC1=O)C2=O` (racemic) [racemic pomalidomide, 4-amino-2-(2,6-dixopiperidin-3-yl)isoindoline-1,3-dione], the EC50 in test [1] (Homo sapiens, T-cell) came out at 0.0103 µM. In addition, the IC50 in test [2] was determined as 0.013 µM.
